Laboratory results from ChEMBL document CHEMBL6120988, “Mitochondria-targeting artesunate-rhein conjugates: Linker-modulated cell-permeability, heme-affinity and anticancer activity” (Eur J Med Chem, 2025).
pIC50: −log10 of the molar value. Calls of active or inactive are those of the source. The rule behind the calls is not given here.

Tests used:
A549 = assay: Cytotoxicity against human A549 cells assessed as cell viability by MTT assay; assay type: functional, cell-based
4T1 [1] = assay: Induction of apoptosis in mouse 4T1 cells assessed as early apoptotic cells by Annexin V-FITC and PI staining based flow cytometry analysis(reference value: 3.60 %); assay type: functional
4T1 [2] = assay: Cytotoxicty against mouse 4T1 cells assessed as cell death by measuring red staining by calcein/PI staining based live/dead staining analysis; assay type: functional
4T1 [3] = assay: Cytotoxicty against mouse 4T1 cells assessed as cell viability by MTT assay; assay type: functional, cell-based
HeLa = assay: Cytotoxicity against human Hela cells assessed as cell viability by MTT assay; assay type: functional, cell-based
4T1 [4] = assay: Induction of ROS production in mouse 4T1 cells assessed as increase in intracellular ROS level by […] staining based flow cytometry (reference value: 7.8%); assay type: functional
U-87 MG = assay: Cytotoxicity against human U87 cells assessed as cell viability by MTT assay; assay type: functional, cell-based, U-87MG ATCC
MCF7 = assay: Cytotoxicity against human MCF7 cells assessed as cell viability by MTT assay; assay type: functional, cell-based
4T1 [5] = assay: Induction of apoptosis in mouse 4T1 cells assessed as viable cells by Annexin V-FITC and PI staining based flow cytometry analysis (reference value: 96.2 %); assay type: functional
4T1 [6] = assay: Induction of apoptosis in mouse 4T1 cells assessed as late apoptotic cells by Annexin V-FITC and PI staining based flow cytometry analysis (reference value: 0.13 %); assay type: functional
[7] = Drug localization in mitochondria of mouse 4T1 cells assessed as fluorescence intensity measured using pearson co-efficient incubated for 10 hrs by mito-tracker red fluorescent dye based confocal laser scanning microscopic analysis; assay type: ADME; details: 4t1, 10 h
4T1 [8] = assay: Induction of apoptosis in mouse 4T1 cells assessed as necrotic cells by Annexin V-FITC and PI staining based flow cytometry analysis (reference value: 0.085 %); assay type: functional
Mitochondrial membrane = assay: Induction of mitochondrial membrane potential loss in mouse 4T1 cells assessed as increase in green fluorescence by JC-1 staining based flow cytometric analysis (reference value: 7.4 %); assay type: cell membranes
4T1 [9] = assay: Induction of immunogenic cell death in mouse 4T1 cells assessed as increase in CRT expression by flow cytometry analysis (reference value: 2.55%); assay type: functional
4T1 [10] = assay: Induction of immunogenic cell death in mouse 4T1 cells assessed as increase in CRT exposure on cell surface by measuring increase in red fluorescence by CLSM analysis (reference value: 2.55%); assay type: functional

| Compound | pIC50 (A549) | Activity (4T1 [1]) [%] | Activity (4T1 [2]) | pIC50 (4T1 [3]) | pIC50 (HeLa) | Activity (4T1 [4]) [%] | pIC50 (U-87 MG) | pIC50 (MCF7) | Activity (4T1 [5]) [%] | Activity (4T1 [6]) [%] | Flu intensity [7] | Activity (4T1 [8]) [%] | Activity (Mitochondrial membrane) [%] | Activity (4T1 [9]) [%] | Activity (4T1 [10]) [%] |
| --- | --- | --- | --- | --- | --- | --- | --- | --- | --- | --- | --- | --- | --- | --- | --- |
| C[C@H]1[C@H](OC(=O)CCC(=O)OCCCCCOC(=O)c2cc(O)c3c(c2)C(=O)c2cccc(O)c2C3=O)O[C@@H]2O[C@@]3(C)CC[C@H]4[C@H](C)CC[C@@H]1[C@@]24OO3 | 5.50 | 13 | Active | 5.77 | 5.54 | 30 | 5.54 | 5.64 | 69.5 | 15.2 | 0.94 | 2.34 | 36.5 | – | – |
| C[C@H]1[C@H](OC(=O)CCC(=O)OCCCOC(=O)c2cc(O)c3c(c2)C(=O)c2cccc(O)c2C3=O)O[C@@H]2O[C@@]3(C)CC[C@H]4[C@H](C)CC[C@@H]1[C@@]24OO3 | 5.53 | 14.9 | Active | 5.85 | 5.54 | 31 | 5.59 | 5.61 | 60.1 | 21.6 | 0.96 | 3.35 | 37.3 | – | – |
| C[C@H]1[C@H](OC(=O)CCC(=O)OCCCCCCOC(=O)c2cc(O)c3c(c2)C(=O)c2cccc(O)c2C3=O)O[C@@H]2O[C@@]3(C)CC[C@H]4[C@H](C)CC[C@@H]1[C@@]24OO3 | 5.48 | 14.2 | Active | 5.74 | 5.51 | 32.7 | 5.57 | 5.66 | 65.8 | 17.7 | 0.95 | 2.37 | 38.1 | – | – |
| O=C(O)c1cc(O)c2c(c1)C(=O)c1cccc(O)c1C2=O [RHEIN] | 4.27 | 4.28 | – | 4.29 | 4.29 | 11.8 | 4.32 | 4.25 | 94 | 0.86 | 0.93 | 0.83 | 11.4 | 3.82 | 3.82 |
| C[C@H]1[C@H](OC(=O)CCC(=O)O)O[C@@H]2O[C@@]3(C)CC[C@H]4[C@H](C)CC[C@@H]1[C@@]24OO3 [ARTESUNATE] | 4.83 | 6.46 | – | 4.92 | 4.81 | 14.3 | 4.87 | 4.89 | 90.6 | 2.24 | – | 0.71 | 14.8 | 9.59 | 9.59 |
| C[C@H]1[C@H](OC(=O)CCC(=O)OCCOC(=O)c2cc(O)c3c(c2)C(=O)c2cccc(O)c2C3=O)O[C@@H]2O[C@@]3(C)CC[C@H]4[C@H](C)CC[C@@H]1[C@@]24OO3 | 5.52 | 13.9 | Active | 5.85 | 5.56 | 39.6 | 5.61 | 5.65 | 52.6 | 26.7 | 0.91 | 6.81 | 39.2 | – | – |
| CC(=O)O[C@H]1C(=O)[C@@]2(C)[C@H]([C@H](OC(=O)c3ccccc3)[C@]3(O)C[C@H](OC(=O)[C@H](O)[C@@H](NC(=O)c4ccccc4)c4ccccc4)C(C)=C1C3(C)C)[C@]1(OC(C)=O)CO[C@@H]1C[C@@H]2O [PACLITAXEL] | – | – | – | 5.50 | – | – | – | – | – | – | – | – | – | – | – |
